US20140031278A1, “Novel Glucagon Analogues” (NOVO NORDISK A/S, priority 2011, published 2014)
*1 amine or outer side, *2 acyl side, *3 side chain or, on linkers, in order; H or OH if unused. Where a SMILES comes first, the peptide text is derived from it. Side-chain parts run from the residue outwards. The star is where a group is joined. γGlu = O=C(O)[C@H](CCC(=O)[*:2])N[*:1]; Butyryl = CCCC(=O)*

What follows are molecules tested against T1, glucagon receptor (Homo sapiens, UniProt P47871) (assay: Assay (I) Glucagon activity (cAMP biosensor, FLIPR)). Conditions: HEK-293 cells with cloned glucagon receptor and cAMP biosensor; end point after 6 minutes.
T1 construct: expressed in transfected cells
Type: cell-based
Summary of the method: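 HEK-293 cells expressing glucagon receptor with membrane cAMP biosensor (ACTOne), calcium-dye loaded with probenecid and a PDE inhibitor.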

T1 sequence (P47871 26-477): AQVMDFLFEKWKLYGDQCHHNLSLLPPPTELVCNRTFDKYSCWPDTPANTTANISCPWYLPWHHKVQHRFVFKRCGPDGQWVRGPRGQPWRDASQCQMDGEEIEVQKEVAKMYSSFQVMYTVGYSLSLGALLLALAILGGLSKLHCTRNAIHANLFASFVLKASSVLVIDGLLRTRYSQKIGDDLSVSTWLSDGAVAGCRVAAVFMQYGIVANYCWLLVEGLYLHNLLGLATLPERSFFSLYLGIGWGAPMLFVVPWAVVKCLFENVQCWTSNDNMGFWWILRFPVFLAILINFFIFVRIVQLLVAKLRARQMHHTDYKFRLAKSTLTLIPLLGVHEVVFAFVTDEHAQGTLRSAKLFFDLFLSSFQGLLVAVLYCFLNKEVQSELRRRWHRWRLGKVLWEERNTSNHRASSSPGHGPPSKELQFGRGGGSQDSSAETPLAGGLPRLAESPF

EC50 | Structure (SMILES)
0.0028 nM | CC(=O)N[C@@H](CCC(=O)N[C@@H](CCC(=O)N[C@@H](CCC(=O)N[C@@H](CCC(=O)NCCCC[C@H](NC(=O)[C@@H](NC(=O)[C@H](Cc1ccccc1)NC(=O)[C@H](CC(=O)O)NC(=O)[C@H](CCC(N)=O)NC(=O)[C@H](C)NC(=O)[C@H](CCCNC(=N)N)NC(=O)[C@H](CCCNC(=N)N)NC(=O)[C@H](Cc1ccccc1)NC(=O)[C@H](CC(=O)O)NC(=O)[C@H](CC(C)C)NC(=O)[C@H](Cc1ccc(O)cc1)NC(=O)[C@H](CCCCN)NC(=O)[C@H](CO)NC(=O)[C@H](Cc1ccc(O)cc1)NC(=O)[C@H](CC(=O)O)NC(=O)[C@H](CO)NC(=O)[C@@H](NC(=O)[C@H](Cc1ccccc1)NC(=O)[C@@H](NC(=O)CNC(=O)[C@H](CCC(N)=O)NC(=O)[C@H](CO)NC(=O)[C@@H](N)Cc1c[nH]cn1)[C@@H](C)O)[C@@H](C)O)C(C)C)C(=O)N[C@@H](Cc1c[nH]c2ccccc12)C(=O)N[C@@H](CC(C)C)C(=O)N[C@@H](CC(C)C)C(=O)N[C@@H](CO)C(=O)N[C@H](C(=O)O)[C@@H](C)O)C(=O)O)C(=O)O)C(=O)O)C(=O)O [Example 35]
0.003 nM | CC(=O)N[C@@H](CCC(=O)N[C@@H](CCC(=O)N[C@@H](CCC(=O)N[C@@H](CCC(=O)NCCCC[C@H](NC(=O)[C@@H](NC(=O)[C@H](Cc1ccccc1)NC(=O)[C@H](CC(=O)O)NC(=O)[C@H](CCC(N)=O)NC(=O)[C@H](C)NC(=O)[C@H](CCCNC(=N)N)NC(=O)[C@H](CCCNC(=N)N)NC(=O)[C@H](Cc1ccc(O)cc1)NC(=O)[C@H](CC(=O)O)NC(=O)[C@H](CC(C)C)NC(=O)[C@H](Cc1ccc(O)cc1)NC(=O)[C@H](CCCCN)NC(=O)[C@H](CO)NC(=O)[C@H](Cc1ccc(O)cc1)NC(=O)[C@H](CC(=O)O)NC(=O)[C@H](CO)NC(=O)[C@@H](NC(=O)[C@H](Cc1ccccc1)NC(=O)[C@@H](NC(=O)CNC(=O)[C@H](CCC(N)=O)NC(=O)[C@H](CO)NC(=O)[C@@H](N)Cc1c[nH]cn1)[C@@H](C)O)[C@@H](C)O)C(C)C)C(=O)N[C@@H](Cc1c[nH]c2ccccc12)C(=O)N[C@@H](CC(C)C)C(=O)N[C@@H](CC(C)C)C(=O)N[C@@H](CO)C(=O)N[C@H](C(=O)O)[C@@H](C)O)C(=O)O)C(=O)O)C(=O)O)C(=O)O [Example 37, N^ε24-[(4S)-4-[[(4S)-4-[[(4S)-4-[[(4S)-4-acetamido-4-carboxybutanoyl]amino]-4-carboxybutanoyl]amino]-4-carbox[…]ybutanoyl]amino]-4-carboxybutanoyl]-[Tyr16,Lys24,Leu27,Ser28]-Glucagon]
0.051 nM | CC(=O)N[C@@H](CCC(=O)N[C@@H](CCC(=O)N[C@@H](CCC(=O)N[C@@H](CCC(=O)NCCCC[C@H](NC(=O)[C@@H](NC(=O)[C@H](Cc1ccccc1)NC(=O)[C@H](CC(=O)O)NC(=O)[C@H](CCC(N)=O)NC(=O)[C@H](C)NC(=O)[C@H](CCCNC(=N)N)NC(=O)[C@H](CCCNC(=N)N)NC(=O)[C@H](CC(C)C)NC(=O)[C@H](CC(=O)O)NC(=O)[C@H](CC(C)C)NC(=O)[C@H](Cc1ccc(O)cc1)NC(=O)[C@H](CCCCN)NC(=O)[C@H](CO)NC(=O)[C@H](Cc1ccc(O)cc1)NC(=O)[C@H](CC(=O)O)NC(=O)[C@H](CO)NC(=O)[C@@H](NC(=O)[C@H](Cc1ccccc1)NC(=O)[C@@H](NC(=O)CNC(=O)[C@H](CCC(N)=O)NC(=O)CNC(=O)[C@@H](N)Cc1c[nH]cn1)[C@@H](C)O)[C@@H](C)O)C(C)C)C(=O)N[C@@H](Cc1c[nH]c2ccccc12)C(=O)N[C@@H](CC(C)C)C(=O)N[C@@H](CC(C)C)C(=O)N[C@@H](CO)C(=O)N[C@H](C(=O)O)[C@@H](C)O)C(=O)O)C(=O)O)C(=O)O)C(=O)O [Example 55, N^ε24-[(4S)-4-[[(4S)-4-[[(4S)-4-[[(4S)-4-acetamido-4-carboxybutanoyl]amino]-4-carboxybutanoyl]amino]-4-carboxybutanoyl]amino]-4-carboxybutanoyl]-[Gly^2,Leu^16,Lys^24,Leu^27,Ser^28]-Glucagon] (H-HGQGTFTSDYSKYLDLRRAQDFVK([γGlu-γGlu-γGlu-γGlu-Ac])WLLST-OH)

The next lines start with the molecule.

Structure (SMILES) | EC50
CC(=O)N[C@@H](CCC(=O)N[C@@H](CCC(=O)N[C@@H](CCC(=O)N[C@@H](CCC(=O)NCCCC[C@H](NC(=O)[C@@H](NC(=O)[C@H](Cc1ccccc1)NC(=O)[C@H](CC(=O)O)NC(=O)[C@H](CCC(N)=O)NC(=O)[C@H](C)NC(=O)[C@H](CCCNC(=N)N)NC(=O)[C@H](CCCNC(=N)N)NC(=O)[C@H](CC(C)C)NC(=O)[C@H](CC(=O)O)NC(=O)[C@H](CC(C)C)NC(=O)[C@H](Cc1ccc(O)cc1)NC(=O)[C@H](CCCCN)NC(=O)[C@H](CO)NC(=O)[C@@H](NC(=O)[C@H](CC(=O)O)NC(=O)[C@H](CO)NC(=O)[C@@H](NC(=O)[C@H](Cc1ccccc1)NC(=O)[C@@H](NC(=O)CNC(=O)[C@H](CCC(N)=O)NC(=O)[C@H](CO)NC(=O)[C@@H](N)Cc1c[nH]cn1)[C@@H](C)O)[C@@H](C)O)C(C)C)C(C)C)C(=O)N[C@@H](Cc1c[nH]c2ccccc12)C(=O)N[C@@H](CC(C)C)C(=O)N[C@@H](CC(C)C)C(=O)N[C@@H](CO)C(=O)N[C@H](C(=O)O)[C@@H](C)O)C(=O)O)C(=O)O)C(=O)O)C(=O)O [Example 43, N^ε24-[(4S)-4-[[(4S)-4-[[(4S)-4-[[(4S)-4-acetamido-4-carboxybutanoyl]amino]-4-carboxybutanoyl]amino]-4-carboxybutanoyl]amino]-4-carboxybutanoyl]-[Val^10,Leu^16,Lys^24,Leu^27,Ser^28]-Glucagon] (H-HSQGTFTSDVSKYLDLRRAQDFVK([γGlu-γGlu-γGlu-γGlu-Ac])WLLST-OH) | 0.016 nM
CCCC(=O)N[C@@H](CCC(=O)N[C@@H](CCC(=O)N[C@@H](CCC(=O)N[C@@H](CCC(=O)NCCCC[C@H](NC(=O)[C@@H](NC(=O)[C@H](Cc1ccccc1)NC(=O)[C@H](CC(=O)O)NC(=O)[C@H](C)NC(=O)[C@H](C)NC(=O)[C@H](CCCNC(=N)N)NC(=O)[C@H](CCCNC(=N)N)NC(=O)[C@H](CC(C)C)NC(=O)[C@H](CC(=O)O)NC(=O)[C@H](CC(C)C)NC(=O)[C@H](Cc1ccc(O)cc1)NC(=O)[C@H](CCCNC(=N)N)NC(=O)[C@H](CO)NC(=O)[C@H](Cc1ccc(O)cc1)NC(=O)[C@H](CC(=O)O)NC(=O)[C@H](CO)NC(=O)[C@@H](NC(=O)[C@H](Cc1ccccc1)NC(=O)[C@@H](NC(=O)CNC(=O)[C@H](CCC(N)=O)NC(=O)[C@H](CO)NC(=O)[C@@H](N)Cc1c[nH]cn1)[C@@H](C)O)[C@@H](C)O)C(C)C)C(=O)N[C@@H](Cc1c[nH]c2ccccc12)C(=O)N[C@@H](CC(C)C)C(=O)N[C@@H](CC(C)C)C(=O)N[C@@H](CO)C(=O)N[C@H](C(=O)O)[C@@H](C)O)C(=O)O)C(=O)O)C(=O)O)C(=O)O [Example 65, N^ε24-[(4S)-4-[[(4S)-4-[[(4S)-4-[[(4S)-4-(butanoylamino)-4-carboxybutanoyl]amino]-4-carboxybutanoyl]amino]-4-carboxybutanoyl]amino]-4-carboxybutanoyl]-[Arg^12,Leu^16,Ala^20,Lys^24,Leu^27,Ser^28]-Glucagon] (H-HSQGTFTSDYSRYLDLRRAADFVK([γGlu-γGlu-γGlu-γGlu-Butyryl])WLLST-OH) | 0.021 nM
CC[C@H](C)[C@H](NC(=O)[C@H](CC(=O)O)NC(=O)[C@H](CC(C)C)NC(=O)[C@H](Cc1ccc(O)cc1)NC(=O)[C@H](CCCNC(=N)N)NC(=O)[C@H](CO)NC(=O)[C@H](Cc1ccc(O)cc1)NC(=O)[C@H](CC(=O)O)NC(=O)[C@H](CO)NC(=O)[C@@H](NC(=O)[C@H](Cc1ccccc1)NC(=O)[C@@H](NC(=O)CNC(=O)[C@H](Cc1c[nH]cn1)NC(=O)[C@H](CO)NC(=O)[C@@H](N)Cc1c[nH]cn1)[C@@H](C)O)[C@@H](C)O)C(=O)N[C@@H](CCCNC(=N)N)C(=O)N[C@@H](CCCNC(=N)N)C(=O)N[C@@H](C)C(=O)N[C@@H](C)C(=O)N[C@@H](CC(=O)O)C(=O)N[C@@H](Cc1ccccc1)C(=O)N[C@H](C(=O)N[C@@H](CCCCNC(=O)CC[C@H](NC(=O)CC[C@H](NC(=O)CC[C@H](NC(=O)CC[C@H](N)C(=O)O)C(=O)O)C(=O)O)C(=O)O)C(=O)N[C@@H](Cc1c[nH]c2ccccc12)C(=O)N[C@@H](CC(C)C)C(=O)N[C@@H](CC(C)C)C(=O)N[C@@H](CO)C(=O)N[C@H](C(=O)O)[C@@H](C)O)C(C)C [Example 8, N^ε24-[(4S)-4-[[(4S)-4-[[(4S)-4-[[(4S)-4-amino-4-carboxybutanoyl]amino]-4-carboxybutanoyl]amino]-4-carboxybutanoyl]amino]-4-carboxybutanoyl]-[His3,Arg12,Ile16,Ala20,Lys24,Leu27,Ser28]-Glucagon] (H-HSHGTFTSDYSRYLDIRRAADFVK([γGlu-γGlu-γGlu-γGlu])WLLST-OH) | 0.0269 nM
CC(C)C[C@H](NC(=O)[C@H](Cc1ccc(O)cc1)NC(=O)[C@H](CCCNC(=N)N)NC(=O)[C@H](CO)NC(=O)[C@H](Cc1ccc(O)cc1)NC(=O)[C@H](CC(=O)O)NC(=O)[C@H](CO)NC(=O)[C@@H](NC(=O)[C@H](Cc1ccccc1)NC(=O)[C@@H](NC(=O)CNC(=O)[C@H](Cc1c[nH]cn1)NC(=O)[C@H](CO)NC(=O)[C@@H](N)Cc1c[nH]cn1)[C@@H](C)O)[C@@H](C)O)C(=O)N[C@@H](CCC(=O)O)C(=O)N[C@@H](CO)C(=O)N[C@@H](CCCNC(=N)N)C(=O)N[C@@H](CCCNC(=N)N)C(=O)N[C@@H](C)C(=O)N[C@@H](C)C(=O)N[C@@H](CC(=O)O)C(=O)N[C@@H](Cc1ccccc1)C(=O)N[C@H](C(=O)N[C@@H](CCCCNC(=O)CC[C@H](NC(=O)CC[C@H](NC(=O)CC[C@H](NC(=O)CC[C@H](N)C(=O)O)C(=O)O)C(=O)O)C(=O)O)C(=O)N[C@@H](Cc1c[nH]c2ccccc12)C(=O)N[C@@H](CC(C)C)C(=O)N[C@@H](CC(C)C)C(=O)N[C@@H](CO)C(=O)N[C@H](C(=O)O)[C@@H](C)O)C(C)C [Example 6, N^ε24-[(4S)-4-[[(4S)-4-[[(4S)-4-[[(4S)-4-amino-4-carboxybutanoyl]amino]-4-carboxybutanoyl]amino]-4-carboxybutanoyl]amino]-4-carboxybutanoyl]-[His3,Arg12,Glu15,Ala20,Lys24,Leu27,Ser28]-Glucagon] (H-HSHGTFTSDYSRYLESRRAADFVK([γGlu-γGlu-γGlu-γGlu])WLLST-OH) | 0.0795 nM
